Laboratory results reported in patent publication US20230087865A1, “PHARMACEUTICAL COMPOSITION FOR ORAL ADMINISTRATION” (HK INNO. N CORPORATION, priority 2020, published 2023).
Structures can show the parent of a compound that is named as a salt.

Test: Evaluation of compatibility between tegoprazan and clopidogrel sulfate (2 weeks, HDPE bottle)
Format: physicochemical
Conditions: for content, component in mixture: mixture of tegoprazan and clopidogrel sulfate
Protocol: Example 1. Evaluation of Compatibility Between Tegoprazan and Clopidogrel Sulfate
According to Table 1 above, in order to examine the effect of each of tegoprazan and clopidogrel hydrogen sulfate, compatibility therebetween was evaluated under storage conditions according to the ICH guideline recommendations and drug safety test regulations.
It was shown that, when the two components came into direct contact with each other under each storage condition, the contents of the two components decreased.

[1] = 2 weeks, Accelerated conditions (40° C./RH 75 ± 5%)
[2] = 2 weeks, Stressed conditions (60° C./RH 75 ± 5%)

SMILES: Cc1nc2cc(C(=O)N(C)C)cc(O[C@H]3CCOc4cc(F)cc(F)c43)c2[nH]1 [Tegoprazan, (S)-4-((5,7-difluorochroman-4-yl)oxy)-N,N,2-trimethyl-1H-benzo[d]imidazole-6-carboxamide]
- content, component alone [1]: 100.3%
- content, component alone [2]: 99.1%
- content, component alone (Initial (room temperature)): 99.8%
- content, component in mixture [1]: 92.0%
- content, component in mixture [2]: 10.5%
- content, component in mixture (Initial (room temperature)): 99.7%

SMILES: COC(=O)[C@H](c1ccccc1Cl)N1CCc2sccc2C1 [Clopidogrel sulfate, methyl (+)-(S)-α-(2-chlorophenyl)-6,7-dihydrothieno[3,2-c]pyridine-5(4H)-acetate]
- content, component alone [1]: 101.1%
- content, component alone [2]: 98.3%
- content, component alone (Initial (room temperature)): 100.2%
- content, component in mixture [1]: 78.9%
- content, component in mixture [2]: 49.0%
- content, component in mixture (Initial (room temperature)): 100.3%
